Where two headings read alike, the source gives them in different places.
Assays:
[1] = target: hPIV-3 strain C243 neuraminidase (UniProt P08492, species not given/STRAIN_C243); assay type: biochemical
[2] = target: hPIV-3 strain CI002 (clinical isolate) neuraminidase (UniProt P08492, species not given/STRAIN_CI002); assay type: biochemical; conditions: hPIV3 CI002; read-out: NI IC50
hPIV-1 strain C35 = test: Haemagglutination inhibition (HI) assay with human red blood cells; assay type: biochemical; conditions: hPIV1 C35
hPIV-3 strain C243 [3] = test: as above; assay type: biochemical; conditions: hPIV3 C243
[4] = tested on: hPIV-3 strain CI002 (clinical isolate); test: as above; assay type: biochemical; conditions: hPIV3 CI002
hPIV-3 strain C243 [5] = test: In situ ELISA virus growth inhibition in LLC-MK2 cells; assay type: cell-based; conditions: Human respirovirus 3, LLC-MK2; hPIV-3 strain C243; Table 1
hPIV-3 strain JS = test: Haemagglutination inhibition (HI) assay with human red blood cells; assay type: biochemical; conditions: hPIV3 JS
[6] = hPIV3 C243, Table 2, read-out: NI IC50
[7] = hPIV-3 strain C243, Table 1, read-out: NI (IC50)

Sequence of hPIV-3 strain C243 neuraminidase (P08492 whole entry, change not shown): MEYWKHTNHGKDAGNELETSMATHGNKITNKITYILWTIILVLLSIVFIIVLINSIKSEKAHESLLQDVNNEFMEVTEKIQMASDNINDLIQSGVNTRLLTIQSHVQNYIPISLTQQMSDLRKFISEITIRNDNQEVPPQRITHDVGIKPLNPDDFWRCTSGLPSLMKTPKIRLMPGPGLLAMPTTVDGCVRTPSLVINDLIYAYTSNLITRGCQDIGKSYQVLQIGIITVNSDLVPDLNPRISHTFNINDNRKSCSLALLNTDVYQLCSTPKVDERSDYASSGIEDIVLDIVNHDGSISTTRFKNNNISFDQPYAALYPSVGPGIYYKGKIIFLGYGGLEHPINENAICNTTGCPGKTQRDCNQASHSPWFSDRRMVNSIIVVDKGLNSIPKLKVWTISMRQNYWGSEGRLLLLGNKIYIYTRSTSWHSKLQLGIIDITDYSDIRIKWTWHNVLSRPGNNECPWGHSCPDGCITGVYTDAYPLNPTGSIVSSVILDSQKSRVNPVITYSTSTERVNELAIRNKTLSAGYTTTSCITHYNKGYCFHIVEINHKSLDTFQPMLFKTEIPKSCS
Sequence of hPIV-3 strain CI002 (clinical isolate) neuraminidase (P08492 whole entry, change not shown): as above

Question: `O=C(O)C1=C[C@H](n2cc3cc4c(cc3n2)OCO4)[C@@H](NC(=O)C(F)(F)F)[C@H]([C@H](O)[C@H](O)CO)O1` was tested. Which IC50 [1, 6] did it give?
Answer: 12.9 µM

Question: And the IC50 [2]?
Answer: 38.9 µM

Question: And the IC50 (hPIV-1 strain C35)?
Answer: 133 µM

Question: And the IC50 (hPIV-3 strain C243 [3])?
Answer: 14.8 µM

Question: And the IC50 [4]?
Answer: 66.7 µM

Question: How did the IC50 [1, 6] turn out when `CC(C)C(=O)N[C@H]1[C@H]([C@H](O)[C@H](O)CO)OC(C(=O)O)=C[C@@H]1n1cc2cc(C(=O)O)ccc2n1` was run?
Answer: 230 µM

Question: And the IC50 [2]?
Answer: 163 µM

Question: What about the IC50 (hPIV-3 strain C243 [3]) of the same compound?
Answer: > 200 µM

Question: Which IC50 [1, 7] does the source give for `CC(=O)N[C@H]1[C@H]([C@H](O)[C@H](O)CO)OC(C(=O)O)=C[C@@H]1n1cc2ccc3ccccc3c2n1` [IE1530-65] here?
Answer: 10.2 µM

Question: For `CC(=O)N[C@H]1[C@H]([C@H](O)[C@H](O)CO)OC(C(=O)O)=C[C@@H]1n1cc2ccccc2n1` [IE1530-66], which IC50 [1, 7] is on record?
Answer: 92.8 µM

Question: `O=C(O)C1=C[C@H](n2cc3ccc4ccccc4c3n2)[C@@H](NC(=O)C(F)(F)F)[C@H]([C@H](O)[C@H](O)CO)O1` [IE1530-69] was tested. Which IC50 [1, 7] did it give?
Answer: 2.84 µM

Question: Which IC50 [1, 7] does the source give for `O=C(O)C1=C[C@H](n2cc3ccccc3n2)[C@@H](NC(=O)C(F)(F)F)[C@H]([C@H](O)[C@H](O)CO)O1` [IE1530-74, Sodium 2,6-anhydro-3,4,5-trideoxy-4-(2H-indazol-2-yl)-5-(2,2,2-trifluoroacetamido)-D-glycero-D-galacto-non-2-enonate] here?
Answer: 9.37 µM

Question: For `CC(=O)N[C@H]1[C@H]([C@H](O)[C@H](O)CO)OC(C(=O)O)=C[C@@H]1n1cc(-c2ccccc2NS(C)(=O)=O)nn1` [IE1778-12], which IC50 [1, 7] is on record?
Answer: 29.1 µM

Question: `CC(=O)N[C@H]1[C@H]([C@H](O)[C@H](O)CO)OC(C(=O)O)=C[C@@H]1n1cc(-c2ccccc2NC(=O)CO)nn1` [IE1778-25] was tested. Which IC50 [1, 7] did it give?
Answer: 27.9 µM

Question: With `CC(=O)N[C@H]1[C@H]([C@H](O)[C@H](O)CO)OC(C(=O)O)=C[C@@H]1n1nnc2c3ccccc3ccc21` [IE1778-64] as the compound, how does the IC50 [1, 7] read?
Answer: 4.13 µM

Question: What does the source list for `O=C(O)C1=C[C@H](n2nnc3c4ccccc4ccc32)[C@@H](NC(=O)C(F)(F)F)[C@H]([C@H](O)[C@H](O)CO)O1` [IE1778-74]?
Answer: IC50 [1, 7]: 0.568 µM; IC50 (hPIV-3 strain C243 [5]): 1.87 µM

Question: For `CC(=O)N[C@H]1[C@H]([C@H](O)[C@H](O)CO)OC(C(=O)O)=C[C@@H]1n1cc(-c2ccccc2NC(=O)CCCCCCCCCCC(=O)Nc2ccccc2-c2cn([C@H]3C=C(C(=O)O)O[C@@H]([C@H](O)[C@H](O)CO)[C@@H]3NC(C)=O)nn2)nn1` [IE1826-01], which IC50 [1, 7] is on record?
Answer: 8.09 µM

Question: And the IC50 (hPIV-3 strain C243 [5])?
Answer: 17.9 µM

Question: `CC(=O)N[C@@H]1[C@@H]([C@@H](O)[C@@H](O)CO)OC(C(=O)O)=C[C@H]1n1cc(-c2ccccc2NC(=O)CCCCCn2cc(CCCc3cn(CCCCCC(=O)Nc4ccccc4-c4cn([C@H]5C=C(C(=O)O)O[C@@H]([C@H](O)[C@H](O)CO)[C@@H]5NC(C)=O)nn4)nn3)nn2)nn1` [IE1826-14] was tested. Which IC50 [1, 7] did it give?
Answer: 8.22 µM

Question: `CC(=O)N[C@H]1[C@H]([C@H](O)[C@H](O)CO)OC(C(=O)O)=C[C@@H]1n1cc(-c2ccccc2NC(=O)CCCCCN=[N+]=[N-])nn1` [IE1826-23] was tested. Which IC50 [1, 7] did it give?
Answer: 69.2 µM

Question: For `CC(=O)N[C@@H]1[C@@H]([C@@H](O)[C@@H](O)CO)OC(C(=O)O)=C[C@H]1n1cc(-c2ccccc2NC(=O)CCCCc2cn(CCCCCC(=O)Nc3ccccc3-c3cn([C@H]4C=C(C(=O)O)O[C@@H]([C@H](O)[C@H](O)CO)[C@@H]4NC(C)=O)nn3)nn2)nn1` [IE1826-28], which IC50 [1, 7] is on record?
Answer: 14 µM

Question: How did the IC50 [1, 7] turn out when `CC(=O)N[C@H]1[C@H]([C@H](O)[C@H](O)CO)OC(C(=O)O)=C[C@@H]1n1cc(-c2ccccc2NC(=O)CCCCCn2cc(-c3ccccc3)nn2)nn1` [IE1826-30] was run?
Answer: 24.3 µM

Question: `CC(=O)N[C@H]1[C@H]([C@H](O)[C@H](O)CO)OC(C(=O)O)=C[C@@H]1n1cc(-c2ccccc2NC(=O)CCCCCn2cc(C(=O)O)nn2)nn1` [IE1826-34] was tested. Which IC50 [1, 7] did it give?
Answer: 16.7 µM

Question: For `COCc1cn(CCCCCC(=O)Nc2ccccc2-c2cn([C@H]3C=C(C(=O)O)O[C@@H]([C@H](O)[C@H](O)CO)[C@@H]3NC(C)=O)nn2)nn1` [IE1826-38], which IC50 [1, 7] is on record?
Answer: 24.2 µM

Question: How did the IC50 [1, 7] turn out when `CC(=O)N[C@H]1[C@H]([C@H](O)[C@H](O)CO)OC(C(=O)O)=C[C@@H]1n1cc(-c2ccccc2NC(=O)CCCCCn2cc(CO)nn2)nn1` [IE1826-44] was run?
Answer: 47.2 µM

Question: For `CC(=O)N[C@H]1[C@H]([C@H](O)[C@H](O)CO)OC(C(=O)O)=C[C@@H]1n1cc(-c2ccccc2NS(C)(=O)=O)nn1` [drawing 111], which IC50 (hPIV-1 strain C35) is on record?
Answer: > 200 µM

Question: What about the IC50 [4] of the same compound?
Answer: 60 µM

Question: What about the IC50 (hPIV-3 strain JS) of the same compound?
Answer: 28 µM
